# Experimental data reported in ChEMBL document CHEMBL5724914, “Linking interpersonal differences in gut microbiota composition and drug biotransformation activity” (2024).
# Settings: human gut metagenome, 24 h, 2 µM
# Note: call rule not given here.
row,Compound,Bacterial Biotransformation
1,Cc1ccccc1C(OCCN(C)C)c1ccccc1.O=C(O)CC(O)(CC(=O)O)C(=O)O (stereo not given) [ORPHENADRINE CITRATE],Compound NOT metabolized
2,CC(=O)CCCCn1c(=O)c2c(ncn2C)n(C)c1=O [PENTOXIFYLLINE],Compound NOT metabolized

# Settings: human gut metagenome, 24 h, 2 µM
# Remark: another data set of the same source
row,Compound,Bacterial Biotransformation
1,Cc1ccccc1C(OCCN(C)C)c1ccccc1.O=C(O)CC(O)(CC(=O)O)C(=O)O (stereo not given) [ORPHENADRINE CITRATE],Compound NOT metabolized
2,CC(=O)CCCCn1c(=O)c2c(ncn2C)n(C)c1=O [PENTOXIFYLLINE],Compound NOT metabolized

# Assay: (§1) The drug is tested on Z-025 corresponding to rabbit gut metagenome with ENA study accession number: PRJEB37062 and ENA sample accession number: ERS12561824 for biotransformation under anaerobic condition. The drug concentrations were measured over 9 timepoints collected between 0 and 24 hours of incubation by liquid-chromatography-coupled mass spectrometry (LC–MS)
# Settings: 2 µM
row,Compound,Bacterial Biotransformation
1,Cc1ccccc1C(OCCN(C)C)c1ccccc1.O=C(O)CC(O)(CC(=O)O)C(=O)O (stereo not given) [ORPHENADRINE CITRATE],Compound metabolized
2,CC(=O)CCCCn1c(=O)c2c(ncn2C)n(C)c1=O [PENTOXIFYLLINE],Compound NOT metabolized

# Settings: human gut metagenome, 24 h, 2 µM
# Remark: another data set of the same source
row,Compound,Bacterial Biotransformation
1,Cc1ccccc1C(OCCN(C)C)c1ccccc1.O=C(O)CC(O)(CC(=O)O)C(=O)O (stereo not given) [ORPHENADRINE CITRATE],Compound metabolized
2,CC(=O)CCCCn1c(=O)c2c(ncn2C)n(C)c1=O [PENTOXIFYLLINE],Compound NOT metabolized

# Assay: as §1, with “Z-006” for “Z-025”, “mouse” for “rabbit”, “ERS12561806” for “ERS12561824”
# Settings: 2 µM
row,Compound,Bacterial Biotransformation
1,Cc1ccccc1C(OCCN(C)C)c1ccccc1.O=C(O)CC(O)(CC(=O)O)C(=O)O (stereo not given) [ORPHENADRINE CITRATE],Compound NOT metabolized
2,CC(=O)CCCCn1c(=O)c2c(ncn2C)n(C)c1=O [PENTOXIFYLLINE],Compound NOT metabolized

# Assay: as §1, with “Z-009” for “Z-025”, “pig” for “rabbit”, “ERS12561809” for “ERS12561824”
# Settings: 2 µM
row,Compound,Bacterial Biotransformation
1,Cc1ccccc1C(OCCN(C)C)c1ccccc1.O=C(O)CC(O)(CC(=O)O)C(=O)O (stereo not given) [ORPHENADRINE CITRATE],Compound metabolized
2,CC(=O)CCCCn1c(=O)c2c(ncn2C)n(C)c1=O [PENTOXIFYLLINE],Compound NOT metabolized

# Settings: human gut metagenome, 24 h, 2 µM
# Remark: another data set of the same source
row,Compound,Bacterial Biotransformation
1,Cc1ccccc1C(OCCN(C)C)c1ccccc1.O=C(O)CC(O)(CC(=O)O)C(=O)O (stereo not given) [ORPHENADRINE CITRATE],Compound metabolized
2,CC(=O)CCCCn1c(=O)c2c(ncn2C)n(C)c1=O [PENTOXIFYLLINE],Compound NOT metabolized

# Assay: as §1, with “Z-007” for “Z-025”, “rat” for “rabbit”, “ERS12561807” for “ERS12561824”
# Settings: 2 µM
row,Compound,Bacterial Biotransformation
1,Cc1ccccc1C(OCCN(C)C)c1ccccc1.O=C(O)CC(O)(CC(=O)O)C(=O)O (stereo not given) [ORPHENADRINE CITRATE],Compound NOT metabolized
2,CC(=O)CCCCn1c(=O)c2c(ncn2C)n(C)c1=O [PENTOXIFYLLINE],Compound NOT metabolized

# Assay: as §1, with “WLS-073” for “Z-025”, “human” for “rabbit”, “ERS12561749” for “ERS12561824”
# Settings: 2 µM
row,Compound,Bacterial Biotransformation
1,Cc1ccccc1C(OCCN(C)C)c1ccccc1.O=C(O)CC(O)(CC(=O)O)C(=O)O (stereo not given) [ORPHENADRINE CITRATE],Compound NOT metabolized
2,CC(=O)CCCCn1c(=O)c2c(ncn2C)n(C)c1=O [PENTOXIFYLLINE],Compound NOT metabolized

# Assay: as §1, with “WLS-052” for “Z-025”, “human” for “rabbit”, “ERS12561747” for “ERS12561824”
# Settings: 2 µM
row,Compound,Bacterial Biotransformation
1,Cc1ccccc1C(OCCN(C)C)c1ccccc1.O=C(O)CC(O)(CC(=O)O)C(=O)O (stereo not given) [ORPHENADRINE CITRATE],Compound NOT metabolized
2,CC(=O)CCCCn1c(=O)c2c(ncn2C)n(C)c1=O [PENTOXIFYLLINE],Compound NOT metabolized

# Assay: as §1, with “Z-022” for “Z-025”, “mouse” for “rabbit”, “ERS12561821” for “ERS12561824”
# Settings: 2 µM
row,Compound,Bacterial Biotransformation
1,Cc1ccccc1C(OCCN(C)C)c1ccccc1.O=C(O)CC(O)(CC(=O)O)C(=O)O (stereo not given) [ORPHENADRINE CITRATE],Compound NOT metabolized
2,CC(=O)CCCCn1c(=O)c2c(ncn2C)n(C)c1=O [PENTOXIFYLLINE],Compound NOT metabolized

# Assay: as §1, with “Z-023” for “Z-025”, “to” for “to rabbit gut”, “ERS12561822” for “ERS12561824”
# Settings: 2 µM
row,Compound,Bacterial Biotransformation
1,Cc1ccccc1C(OCCN(C)C)c1ccccc1.O=C(O)CC(O)(CC(=O)O)C(=O)O (stereo not given) [ORPHENADRINE CITRATE],Compound metabolized
2,CC(=O)CCCCn1c(=O)c2c(ncn2C)n(C)c1=O [PENTOXIFYLLINE],Compound NOT metabolized

# Assay: as §1, with “WLS-350” for “Z-025”, “human” for “rabbit”, “ERS12561789” for “ERS12561824”
# Settings: 2 µM
row,Compound,Bacterial Biotransformation
1,Cc1ccccc1C(OCCN(C)C)c1ccccc1.O=C(O)CC(O)(CC(=O)O)C(=O)O (stereo not given) [ORPHENADRINE CITRATE],Compound NOT metabolized
2,CC(=O)CCCCn1c(=O)c2c(ncn2C)n(C)c1=O [PENTOXIFYLLINE],Compound NOT metabolized

# Settings: human gut metagenome, 24 h, 2 µM
# Remark: another data set of the same source
row,Compound,Bacterial Biotransformation
1,Cc1ccccc1C(OCCN(C)C)c1ccccc1.O=C(O)CC(O)(CC(=O)O)C(=O)O (stereo not given) [ORPHENADRINE CITRATE],Compound NOT metabolized
2,CC(=O)CCCCn1c(=O)c2c(ncn2C)n(C)c1=O [PENTOXIFYLLINE],Compound metabolized

# Assay: as §1, with “Z-004” for “Z-025”, “to” for “to rabbit gut”, “ERS12561804” for “ERS12561824”
# Settings: 2 µM
row,Compound,Bacterial Biotransformation
1,Cc1ccccc1C(OCCN(C)C)c1ccccc1.O=C(O)CC(O)(CC(=O)O)C(=O)O (stereo not given) [ORPHENADRINE CITRATE],Compound metabolized
2,CC(=O)CCCCn1c(=O)c2c(ncn2C)n(C)c1=O [PENTOXIFYLLINE],Compound NOT metabolized

# Settings: human gut metagenome, 24 h, 2 µM
# Remark: another data set of the same source
row,Compound,Bacterial Biotransformation
1,Cc1ccccc1C(OCCN(C)C)c1ccccc1.O=C(O)CC(O)(CC(=O)O)C(=O)O (stereo not given) [ORPHENADRINE CITRATE],Compound NOT metabolized
2,CC(=O)CCCCn1c(=O)c2c(ncn2C)n(C)c1=O [PENTOXIFYLLINE],Compound NOT metabolized

# Settings: human gut metagenome, 24 h, 2 µM
# Remark: another data set of the same source
row,Compound,Bacterial Biotransformation
1,Cc1ccccc1C(OCCN(C)C)c1ccccc1.O=C(O)CC(O)(CC(=O)O)C(=O)O (stereo not given) [ORPHENADRINE CITRATE],Compound metabolized
2,CC(=O)CCCCn1c(=O)c2c(ncn2C)n(C)c1=O [PENTOXIFYLLINE],Compound NOT metabolized

# Assay: as §1, with “Z-013” for “Z-025”, “ERS12561813” for “ERS12561824”
# Settings: 2 µM
row,Compound,Bacterial Biotransformation
1,Cc1ccccc1C(OCCN(C)C)c1ccccc1.O=C(O)CC(O)(CC(=O)O)C(=O)O (stereo not given) [ORPHENADRINE CITRATE],Compound NOT metabolized
2,CC(=O)CCCCn1c(=O)c2c(ncn2C)n(C)c1=O [PENTOXIFYLLINE],Compound NOT metabolized

# Settings: human gut metagenome, 24 h, 2 µM
# Remark: another data set of the same source
row,Compound,Bacterial Biotransformation
1,Cc1ccccc1C(OCCN(C)C)c1ccccc1.O=C(O)CC(O)(CC(=O)O)C(=O)O (stereo not given) [ORPHENADRINE CITRATE],Compound NOT metabolized
2,CC(=O)CCCCn1c(=O)c2c(ncn2C)n(C)c1=O [PENTOXIFYLLINE],Compound NOT metabolized

# Assay: as §1, with “WLS-010” for “Z-025”, “human” for “rabbit”, “ERS12561743” for “ERS12561824”
# Settings: 2 µM
row,Compound,Bacterial Biotransformation
1,Cc1ccccc1C(OCCN(C)C)c1ccccc1.O=C(O)CC(O)(CC(=O)O)C(=O)O (stereo not given) [ORPHENADRINE CITRATE],Compound metabolized
2,CC(=O)CCCCn1c(=O)c2c(ncn2C)n(C)c1=O [PENTOXIFYLLINE],Compound NOT metabolized
